Read-outs that look alike come from different tables or passages of the source.
How the values were obtained:
[1] = test system: UM-UC-3; experiment: Inhibition of tumor cell proliferation, UM-UC-3; assay type: cell-based; settings: Homo sapiens, read-out: IC50, nM, UM-UC-3
Procedure: (§1) The biological activity of compounds of this invention was evaluated by measuring their inhibitory effect on the proliferation of various tumor cell lines. HCT-116 is a human colon cancer cell line. LNCap is a human prostate cancer cell line. SiHa is an HPV-16 positive human cervical cancer line.
(§2) Table D presents additional data for the activity of compounds A-1 and A-4 against various cell lines. In some instances, comparative data against leptomycin B (LMB) and/or compound VI (Dong et al., US 2005/0272727 A1 (2005) is also provided.
(§3) The additional cell lines tested against represent a variety of different cancers: bladder cancer (UM-UC-3), breast cancer (BT474, HCC1937, MDA-MB468, NCI-ADR), CNS cancer (U87MG (glioma), SKNSH (neuroblastoma)), colon cancer (LoVo, LS411N, LS513), head and neck cancer (CAL-27, FaDu), leukemia (CCRF-CEM, MOLT-4), liver cancer (HepG2), lung cancer (A549, NCI-H23, NCI-H358), melanoma (Colo829), ovarian cancer (OVCAR-4), pancreatic cancer (BxPC-3, Mia-PaCa2), prostate cancer (22Rv1, PC-3), and renal cancer (A-498, Caki-1).

[2] = test system: LNCap; experiment: Inhibition of tumor cell proliferation, LNCap; assay type: cell-based, human; settings: Homo sapiens, LNCaP, read-out: Cancer Cell Line (IC50, nM) LNCap
Procedure: as §1

[3] = test system: CRM1 substrate RanBP1; experiment: Nuclear export block (RanBP1 localization, recovery after compound removal); assay type: cell-based; settings: recovery of cytoplasmic RanBP1 localization after compound washout (typically 1 h exposure; 8, 24 or 48 h recovery)
Procedure: The nuclear export blocking capability of compounds of this invention was evaluated as follows:
1-5×10^4 cells were seeded onto 12 mm glass coverslips or wells of a chamber slide (for example, Lab-Tek #177445). Cells were grown overnight at 37° C. to allow cells to attach to the surface. Media was removed and replaced with media containing the desired test compound and incubated the required time period (typically 1 h). For recovery experiments, cells were washed with PBS or media and incubated in media without test compound for the desired recovery periods (typically 8, 24, or 48 h). The media was removed and coverslips/wells were washed with PBS pH 7.4 for 1 minute. Coverslips or slides were fixed with 3.7% formaldehyde in PBS for 20 minutes at room temperature, washed three times in PBS, and stained for the CRM1 substrate RanBP1.
Coverslips or chamber slides were permeabilized and blocked in 10% donkey serum, 0.1% Triton X-100 in PBS for 30 minutes at room temperature. Primary antibodies were diluted in PBS and incubated for 1 hour at room temperature: goat-anti-RanBP1 (Santa Cruz Biotechnology, sc-1160; 1:50 dilution) and mouse-anti-tubulin (Sigma, T9026; 1:400). Cells were washed 3×5 minutes in PBS. Secondary antibodies donkey-anti-goat Cy3 (705-165-147, Jackson Immunoresearch) and donkey anti-mouse FITC (715-095-150, Jackson Immunoresearch) were diluted 1:200 in PBS and incubated for 1 hour at room temperature. Secondary antibody was removed and cells were stained with a nuclear dye such as DAPI (Sigma, D8417; 2.5 ug/mL in PBS) or Hoechst 33342 (Molecular Probes, H3570; 100 ng/mL in PBS) for 5 minutes at room temperature. Cells were washed 3×5 minutes in PBS and coverslips were mounted with FluorSave (EMD Biosciences, 80058-108). Nuclear (N) or cytoplasmic (C) localization of RanBP1 was examined using a 40× objective on a Zeiss Axiovert 200 inverted epiflourescence microscope. Nuclear localization (N>C) was confirmed after the initial drugging period.

[4] = test system: A549; experiment: Inhibition of tumor cell proliferation, A549; assay type: cell-based; settings: Homo sapiens, read-out: IC50, nM, A549
Procedure: as §1, §2, §3

[5] = test system: SKNSH; experiment: Inhibition of tumor cell proliferation, SKNSH; assay type: cell-based; settings: Homo sapiens, SK-N-SH, read-out: IC50, nM, SKNSH
Procedure: as §1, §2, §3

[6] = test system: NCI-ADR; experiment: Inhibition of tumor cell proliferation, NCI-ADR; assay type: cell-based; settings: Homo sapiens, NCI/ADR-RES, read-out: IC50, nM, NCI-ADR
Procedure: as §1, §2, §3

[7] = test system: SiHa; experiment: Inhibition of tumor cell proliferation, SiHa; assay type: cell-based, human; settings: Homo sapiens, SiHa, read-out: Cancer Cell Line (IC50, nM) SiHa
Procedure: as §1

[8] = test system: HCT-116; experiment: Inhibition of tumor cell proliferation, HCT-116; assay type: cell-based, human; settings: Homo sapiens, HCT-116, read-out: Cancer Cell Line (IC50, nM) HCT-116
Procedure: as §1

[9] = test system: Caki-1; experiment: Inhibition of tumor cell proliferation, Caki-1; assay type: cell-based; settings: Homo sapiens, exposure time 1 h
Procedure: as §1, §2, §3

[10] = test system: HCC1937; experiment: Inhibition of tumor cell proliferation, HCC1937; assay type: cell-based; settings: Homo sapiens
Procedure: as §1, §2, §3

[11] = test system: MOLT-4; experiment: Inhibition of tumor cell proliferation, MOLT-4; assay type: cell-based; settings: Homo sapiens, exposure time 72 h
Procedure: as §1, §2, §3

[12] = test system: 22Rv1; experiment: Inhibition of tumor cell proliferation, 22Rv1; assay type: cell-based; settings: Homo sapiens
Procedure: as §1, §2, §3

[13] = test system: LS411N; experiment: Inhibition of tumor cell proliferation, LS411N; assay type: cell-based; settings: Homo sapiens, LS-411N
Procedure: as §1, §2, §3

[14] = test system: CCRF-CEM; experiment: Inhibition of tumor cell proliferation, CCRF-CEM; assay type: cell-based; settings: Homo sapiens, exposure time 72 h
Procedure: as §1, §2, §3

[15] = test system: LoVo; experiment: Inhibition of tumor cell proliferation, LoVo; assay type: cell-based; settings: Homo sapiens, exposure time 1 h
Procedure: as §1, §2, §3

[16] = test system: PC-3; experiment: Inhibition of tumor cell proliferation, PC-3; assay type: cell-based; settings: Homo sapiens
Procedure: as §1, §2, §3

[17] = test system: NCI-H358; experiment: Inhibition of tumor cell proliferation, NCI-H358; assay type: cell-based; settings: Homo sapiens
Procedure: as §1, §2, §3

[18] = test system: CAL-27; experiment: Inhibition of tumor cell proliferation, CAL-27; assay type: cell-based; settings: Homo sapiens
Procedure: as §1, §2, §3

[19] = test system: LS513; experiment: Inhibition of tumor cell proliferation, LS513; assay type: cell-based; settings: Homo sapiens, LS-513
Procedure: as §1, §2, §3

[20] = test system: HepG2; experiment: Inhibition of tumor cell proliferation, HepG2; assay type: cell-based; settings: Homo sapiens
Procedure: as §1, §2, §3

[21] = test system: OVCAR-4; experiment: Inhibition of tumor cell proliferation, OVCAR-4; assay type: cell-based; settings: Homo sapiens
Procedure: as §1, §2, §3

[22] = test system: Mia-PaCa2; experiment: Inhibition of tumor cell proliferation, Mia-PaCa2; assay type: cell-based; settings: Homo sapiens, MIA PaCa-2
Procedure: as §1, §2, §3

[23] = test system: FaDu; experiment: Inhibition of tumor cell proliferation, FaDu; assay type: cell-based; settings: Homo sapiens
Procedure: as §1, §2, §3

[24] = test system: U87MG; experiment: Inhibition of tumor cell proliferation, U87MG; assay type: cell-based; settings: Homo sapiens, U-87 MG
Procedure: as §1, §2, §3

[25] = test system: Colo829; experiment: Inhibition of tumor cell proliferation, Colo829; assay type: cell-based; settings: Homo sapiens, COLO-829
Procedure: as §1, §2, §3

[26] = test system: NCI-H23; experiment: Inhibition of tumor cell proliferation, NCI-H23; assay type: cell-based; settings: Homo sapiens
Procedure: as §1, §2, §3

[27] = test system: BT474; experiment: Inhibition of tumor cell proliferation, BT474; assay type: cell-based; settings: Homo sapiens, BT-474
Procedure: as §1, §2, §3

[28] = test system: A-498; experiment: Inhibition of tumor cell proliferation, A-498; assay type: cell-based; settings: Homo sapiens, A498; exposure time 1 h
Procedure: as §1, §2, §3

SMILES: CCC(=C/[C@H](C)C/C=C/C(C)=C/[C@@H](C)C(=O)[C@@H](C)[C@H](O)[C@@H](C)C/C(C)=C/C(=O)O)/C=C/[C@@H]1OC(=O)C=C[C@@H]1C [Leptomycin B, reference compound]
- IC50 ([1]; UMUC3, exposure time 72 h): 0.3 nM
- IC50 ([2]; exposure time to compound 1 h): 3.3 nM
- IC50 ([2]; exposure time to compound 72 h): 0.3 nM
- Nuclear Export Block [3]: Slow recovery
- IC50 ([4]; A549, exposure time 72 h): 0.55 nM
- IC50 ([5]; exposure time 1 h): 4.1 nM
- IC50 ([5]; exposure time 72 h): 0.4 nM
- IC50 ([6]; exposure time 1 h): 33.8 nM
- IC50 ([7]; exposure time to compound 1 h): 2.1 nM
- IC50 ([7]; exposure time to compound 72 h): 0.4 nM
- IC50 ([8]; exposure time to compound 1 h): 4.3 nM
- IC50 ([8]; exposure time to compound 72 h): 0.32 nM

SMILES: CCC(=C/[C@H](C)C/C=C/C(C)=C/[C@@H](C)C(=O)[C@@H](C)[C@H](O)[C@@H](C)C/C(C)=C/C(=O)NCCc1cccnc1)/C=C/[C@@H]1OC(=O)C=C[C@@H]1C [VI, reference compound]
- IC50 [9]: 4.5 nM
- IC50 ([10]; exposure time 1 h): 5.7 nM
- IC50 ([10]; exposure time 72 h): 4.3 nM
- IC50 [11]: 2.9 nM
- IC50 ([12]; exposure time 1 h): 1.8 nM
- IC50 ([12]; exposure time 72 h): 0.3 nM
- IC50 ([13]; exposure time 1 h): 2.9 nM
- IC50 ([13]; exposure time 72 h): 0.5 nM
- IC50 [14]: 0.8 nM
- IC50 [15]: 2.5 nM
- IC50 ([16]; exposure time 1 h): 3.3 nM
- IC50 ([16]; exposure time 72 h): 0.7 nM
- IC50 ([1]; UMUC3, 1 h): 2.6 nM
- IC50 ([1]; UMUC3, 72 h): 0.3 nM
- IC50 ([17]; exposure time 1 h): 1.6 nM
- IC50 ([17]; exposure time 72 h): 0.4 nM
- IC50 ([18]; exposure time 1 h): 0.7 nM
- IC50 ([18]; exposure time 72 h): 0.3 nM
- IC50 ([19]; exposure time 1 h): 5.5 nM
- IC50 ([19]; exposure time 72 h): 0.9 nM
- IC50 ([20]; exposure time 1 h): 3.2 nM
- IC50 ([20]; exposure time 72 h): 0.7 nM
- IC50 ([21]; exposure time 1 h): 6.7 nM
- IC50 ([21]; exposure time 72 h): 1.5 nM
- IC50 ([22]; exposure time 1 h): 5 nM
- IC50 ([22]; exposure time 72 h): 1.7 nM
- IC50 ([4]; A549, 1 h): 3.8 nM
- IC50 ([4]; A549, 72 h): 3 nM
- IC50 ([23]; exposure time 1 h): 7.3 nM
- IC50 ([23]; exposure time 72 h): 1 nM
- IC50 ([5]; 1 h): 2.2 nM
- IC50 ([5]; 72 h): 0.5 nM
- IC50 ([24]; exposure time 1 h): 5 nM
- IC50 ([24]; exposure time 72 h): 0.6 nM
- IC50 ([25]; exposure time 1 h): 2.1 nM
- IC50 ([25]; exposure time 72 h): 0.3 nM
- IC50 ([26]; exposure time 1 h): 2.6 nM
- IC50 ([26]; exposure time 72 h): 0.4 nM
- IC50 ([27]; exposure time 1 h): 2.1 nM
- IC50 ([27]; exposure time 72 h): 0.8 nM
- IC50 ([6]; 1 h): 77.3 nM
- IC50 ([6]; 72 h): 13 nM
- IC50 [28]: 4.8 nM
